Results: paper PMC7796259, “Evaluation of Ionic Liquids and Ionic Liquids Active Pharmaceutical Ingredients Inhibition in Elastase Enzyme Activity” (Molecules, 2021)
Where two headings read alike, the source gives them in different places. One block for each molecule: values may come before it. Where a SMILES comes first, the peptide text is derived from it. The star is where a group is joined. MeOSuc = COC(=O)CCC(=O)*; CH2Cl = ClC*

Legend:
[1] = target: T1, Elastase from porcine pancreas (Sus scrofa, UniProt P00772); test: Elastase inhibition assay, spectrophotometric (N-succinyl-Ala-Ala-Ala-p-nitroanilide, 405 nm); format: biochemical
T1 construct: purchased Sigma-Aldrich; host or cells: porcine pancreas (tissue-derived commercial powder)
T1 sequence (P00772 27-266): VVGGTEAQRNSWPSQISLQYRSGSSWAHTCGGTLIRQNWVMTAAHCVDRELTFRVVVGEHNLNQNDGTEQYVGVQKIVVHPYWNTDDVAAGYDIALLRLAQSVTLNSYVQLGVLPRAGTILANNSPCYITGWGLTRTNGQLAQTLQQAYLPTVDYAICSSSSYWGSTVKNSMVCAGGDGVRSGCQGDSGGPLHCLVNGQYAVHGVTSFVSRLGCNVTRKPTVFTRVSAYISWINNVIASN
Protocol: In order to evaluate the effect of these compounds (ILs and IL-APIs), an enzymatic reaction based on the conversion of the substrate N-succinyl-Ala-Ala-Ala-p-nitroaniline to succinyl-Ala-Ala-Ala and p-nitroaniline by the enzyme elastase was performed. The enzyme activity is determined by the formation of p-nitroaniline, the chromogenic compound resulted from the reaction. Substrate degradation was continuously monitored in the spectrophotometer by measuring increasing absorbance at 405 nm.
The EC50 values for each IL were calculated as the inhibitory concentration causing a 50% decrease in Elastase activity. The EC50 values were automatically calculated, using GraphPad prism8 software.
All the reagents (HEPES buffer, N-succinyl-Ala-Ala-Ala p-nitroanilide, Elastase and acetate buffer) were added sequentially in eppendorf, being the final volume equal to 250 µL. So, in each eppendorf it was added 137.5 µL of HEPES buffer, 10 µL of N-succinyl-Ala-Ala-Ala p-nitroanilide substrate, 30 µL of elastase, 70 µL of acetate buffer, 2.5 µL of DMSO. In inhibitory assays was 87.5 µL of HEPES buffer, 10 µL of N-succinyl-Ala-Ala-Ala p-nitroanilide substrate, 30 µL of elastase, 70 µL of acetate buffer, 2.5 µL of DMSO, and 50 µL of IL/IL-APIs.
Next, the eppendorf was placed inside the thermostatic bath at 37 °C for 10 min.
After 10 min, the reaction product was measured in spectrophotometer at 405 nm.
All assays were performed in batch mode. Thus, the different reagents were placed manually in an eppendorf at the desired concentrations and volumes. After, they were placed in a thermostatic bath where the reaction temperature was regulated for the desired period. The succinyl-Ala-Ala-Ala and p-nitroaniline result from the cleavage of the substrate N-succinyl-Ala-Ala-Ala-p-nitroaniline by porcine elastase enzyme. The enzyme activity was determined by monitoring the chromogenic compound, p-nitroaniline, at 405 nm. All results of ILs and IL-APIs were obtained in duplicate.

carboxylesterase = conditions: read-out: EC50 for carboxylesterase; compared with elastase values; cited from earlier work
[2] = IL-APIs, aqueous solutions, 37 °C, 10 min, substrate 100 µM, duplicate, read-out: EC50 (µM) ± SD

Molecule: CC(C)(C)CC(C)(C)c1ccc(OCCOCC[N+](C)(C)Cc2ccccc2)cc1.O=S(=O)([N-]S(=O)(=O)C(F)(F)F)C(F)(F)F [Benzethonium bistriflimide]
- EC50 [1, 2]: > 1000 µM

Molecule: O=S(=O)(NS(=O)(=O)C(F)(F)F)C(F)(F)F [Lithium bistriflimide]
- EC50 [1, 2]: 209 ± 12 µM

Molecule: COC(=O)CCC(=O)N[C@@H](C)C(=O)N[C@@H](C)C(=O)N1CCC[C@H]1C(=O)N[C@H](C(=O)CCl)C(C)C [MeOSuc-Ala-Ala-Pro-Val-chloromethylketone, reference compound] (MeOSuc-AAPV-CH2Cl)
- EC50 ([1]; ILs and positive control, aqueous solutions, 37 °C, 10 min, substrate 100 µM, duplicate, read-out: EC50 (mM) ± SD): 470 ± 50 µM

Molecule: O=C([O-])c1ccccc1O.[Na+] [Sodium salicylate, reference compound]
- EC50 (carboxylesterase): 116.99 ± 0.02 µM
- EC50 ([1]; read-out: EC50 (µM) ± SD): 124 ± 4 µM

Molecule: CCCC[P+](C)(CCCC)CCCC [Tributylmethylphosphonium salicylate]
- EC50 [1, 2]: > 200 µM

Molecule: CCCCC(CC)COC(=O)CC(C(=O)OCC(CC)CCCC)S(=O)(=O)[O-].CCCCCCCCCCCCCC[P+](CCCCCC)(CCCCCC)CCCCCC [Trihexyltetradecylphosphonium docusate]
- EC50 [1, 2]: > 700 µM

Molecule: CCCCCCCCCCCCCC[P+](CCCCCC)(CCCCCC)CCCCCC [Trihexyltetradecyphosphonium chloride]
- EC50 [1, 2]: > 100 µM

- EC50 [1, 2]: 230 ± 20 µM
Molecule: Benzalkonium salicylate

Molecule: Benzethonium docusate
- EC50 [1, 2]: > 200 µM

Molecule: Benzethonium salicylate
- EC50 [1, 2]: > 500 µM
